According to article PMC4579064 (Toxicology and applied pharmacology, 2015):

How the values were obtained:
brain ChE = brain ChE activity in parathion-treated rats; type: in vivo, rat
rat = conditions: ref Gaines, 1960; cited from earlier work
female Long-Evans rats = conditions: out of 5 rats dosed with parathion 8 mg/kg oral; 60 min
[1] = type: in vivo, rat; conditions: after parathion 8 mg/kg oral; 60 min
[2] = substrate: CC1=CC(=O)c2ccccc2C1=O; assay: CPR-mediated redox cycling, hydroxyl radical formation; type: biochemical, human; conditions: other: menadione; Fe/EDTA, terephthalate; pH 7.8; 37.0 °C
[3] = substrate: CC1=CC(=O)c2ccccc2C1=O; assay: CPR-mediated redox cycling, H2O2 formation; type: biochemical, human; conditions: other: menadione as redox cycling substrate of CPR; Amplex Red; pH 7.8; 37.0 °C
[4] = parathion 8 mg/kg oral gavage alone, 60 min

CC1(S(=O)(=O)[O-])CC(=O)c2ccccc2C1=O.[Na+] (centres unmarked) [menadione bisulfite]
parathion-induced inhibition of brain cholinesterase activity (brain ChE; menadione bisulfite 40 mg/kg, ip): reduced

CCOP(=S)(OCC)Oc1ccc([N+](=O)[O-])cc1 [parathion, diethyl 4-nitrophenyl phosphorothionate]
forebrain ChE activity inhibited (brain ChE; [4]): 95% | hindbrain ChE activity inhibited (brain ChE; [4]): 87% | rat oral LD50 (rat): 2 to 13 mg/kg | rats that died before the end of the observation period (female Long-Evans rats): 1

CCOP(=O)(OCC)Oc1ccc([N+](=O)[O-])cc1 [paraoxon, diethyl 4-nitrophenyl phosphate]
paraoxon levels in serum, liver and brain [1]: could not be detected

B1: recombinant human CPR (Homo sapiens) (protein)
chain: MGDSHVDTSSTVSEAVAEEVSLFSMTDMILFSLIVGLLTYWFLFRKKKEEVPEFTKIQTLTSSVRESSFVEKMKKTGRNIIVFYGSQTGTAEEFANRLSKDAHRYGMRGMSADPEEYDLADLSSLPEIDNALVVFCMATYGEGDPTDNAQDFYDWLQETDVDLSGVKFAVFGLGNKTYEHFNAMGKYVDKRLEQLGAQRIFELGLGDDDGNLEEDFITWREQFWPAVCEHFGVEATGEESSIRQYELVVHTDIDAAKVYMGEMGRLKSYENQKPPFDAKNPFLAAVTTNRKLNQGTERHLMHLELDISDSKIRYESGDHVAVYPANDSALVNQLGKILGADLDVVMSLNNLDEESNKKHPFPCPTSYRTALTYYLDITNPPRTNVLYELAQYASEPSEQELLRKMASSSGEGKELYLSWVVEARRHILAILQDCPSLRPPIDHLCELLPRLQARYYSIASSSKVHPNSVHICAVVVEYETKAGRINKGVATNWLRAKEPAGENGGRALVPMFVRKSQFRLPFKATTPVIMVGPGTGVAPFIGFIQERAWLRQQGKEVGETLLYYGCRRSDEDYLYREELAQFHRDGALTQLNVAFSREQSHKVYVQHLLKQDREHLWKLIEGGAHIYVCGDARNMARDVQNTFYDIVAELGAMEHAQAVDYIKKLMTKGRYSLDVWS
Km [2]: 1.7 µM | Km [3]: 4.1 µM
